The values below come from PMC8102702, “Azithromycin Exhibits Activity Against Pseudomonas aeruginosa in Chronic Rat Lung Infection Model” (Frontiers in Microbiology, 2021).

In general, MIC refers to the least concentration at which growth counts as inhibited. Lower therefore signals greater potency. The Cmax is the maximum level reached in the sampled fluid or tissue. What is called Tmax is the time at which the peak concentration occurs.

≈ marks a conversion by molar mass, not a printed value. Where two headings read alike, the source gives them in different places. A value given as a limit tells only on which side of the number the result lay.

Data set [1] has as its system pelA promoter-lacZ in recombinant P. aeruginosa G2. Briefly: β-galactosidase activity of pel promoter-lacZ transcriptional fusion. The format is cell-based, Pseudomonas aeruginosa. The protocol:
To understand the molecular mechanism of biofilm inhibition, a recombinant mutant P. aeruginosa G2-containing promoterless lacZ gene under promoter control of pelA was gifted to us by Prof. Kilter ([Sakuragi and Kolter, 2007]). The β-galactosidase activity was performed in the absence and presence of different concentrations of azithromycin and levofloxacin, as described earlier ([Sakuragi and Kolter, 2007]).

A further data set deals with P. aeruginosa G2. Briefly: MIC. The format is cell-based. The note with it: Pseudomonas aeruginosa.
A further data set relates to P. aeruginosa PA-14. Briefly: Chronic rat lung (biofilm) infection model, lung bacterial load. The format is in vivo, Sprague-Dawley rats. The note with it: 75 mg/kg PO, q24h for 4 days, started 3 days post-infection; lungs 22 h after last dose. The text has this:
Specific pathogen-free female Sprague–Dawley (SD) rats, weighing 200 ± 20 g (age 8 weeks), were used for the study. The rats were procured from Vivo Biotech Pvt. Ltd., Hyderabad, India. The animals were housed in a pathogen-free animal facility and allowed 5 days of acclimatization in the study room before initiating the experiment. Feed and water were provided ad libitum during acclimatization and the study periods. All animal studies were approved by the institutional animal ethics committee. The animal studies were conducted under the strict guidelines of the committee for the Purpose of Control and Supervision of Experiments on Animals, Ministry of Environment, Forests and Climate Change, New Delhi, Government of India, and under the supervision of the institutional committee.
To determine the in vivo efficacy of azithromycin, a chronic biofilm model of P. aeruginosa was established in SD rats, which mimic the human chronic infection ([Hoover et al., 2017]; [Chawanpaiboon et al., 2019]). A semisolid 0.25% w/v agar beads suspension was prepared and autoclaved a day before the in vivo experiment and stored overnight at 4°C. […] The rats were then euthanized 22 h after the last dose, and the lungs’ bacterial load was determined by plating diluted lung homogenates on MHA.

Data set [2] concerns QS molecule (3-O-C12 HSL) of P. aeruginosa. As to the kind of experiment: QS molecule in epithelial lining fluid of infected rats. The format is in vivo. The note with it: azithromycin treated rats vs placebo control, 7 days post-infection.
The subject of data set [3] is P. aeruginosa PAO1 biofilm. As to the kind of experiment: In vitro biofilm formation inhibition, crystal violet, 96-well plate. The format is cell-based. The note with it: Pseudomonas aeruginosa; P. aeruginosa PAO1, 24 h exposure, LB broth with 0.2% glucose; read-out: biofilm preventive concentration (BPC50). The protocol: The effect of azithromycin and clindamycin on P. aeruginosa biofilm formation was assessed as described previously ([Sharma et al., 2009]; [Barman et al., 2016]; [Kumar et al., 2019]). Briefly, the overnight-grown culture of P. aeruginosa PAO1 in TSB was pelleted and resuspended in Luria-Bertani broth containing 0.2% glucose (10^7 CFU/ml). The bacterial suspension was spiked with different concentrations (16-0.015 μg/ml) of azithromycin or clindamycin in 96-well plates and incubated at 26 ± 2°C. The effects of azithromycin and clindamycin on inhibition of biofilm formation were assayed after 24 h of exposure. The wells were emptied and washed three times with phosphate-buffered saline (PBS; pH 7.3), and the adherent biofilm was stained with 200 μl of 1% crystal violet for 30 min and rinsed with distilled water. The adherent biofilm in the wells was solubilized with 200 μl of 30% acetic acid, and the optical density at 600 nm (OD600) was measured to quantify the formed biofilms. Each experiment was performed thrice, and the mean percent inhibition and standard deviations were calculated. The relative inhibition of biofilms, expressed as a mean percentage, was determined using the following formula: Percentinhibition=100-{([…]-controlwell)×100}

Data set [4] deals with P. aeruginosa PA-14 planktonic cells. Briefly: Time-kill kinetic study, planktonic cells. The settings on record: P. aeruginosa PA-14, LB media. The format is cell-based, Pseudomonas aeruginosa. The procedure: (§1) To further evaluate the effect of azithromycin on planktonic cells and biofilm formation, a time-kill kinetic study was performed. Briefly, 10 ml of LB broth containing 0.2% glucose and a sterile 2-cm-long piece of the catheter were pre-warmed at 26 ± 2°C in reaction tubes, and the different concentrations of azithromycin (2 or 16 μg/ml) were added to tubes. The bacterial inoculum of P. aeruginosa PA-14 was prepared as described above and added to the tubes to achieve a final inoculum of ∼1 × 10^5 CFU/ml. The tubes were incubated at 26 ± 2°C. The planktonic cell counts were determined at various time-points by serial dilution plating onto a trypticase soy agar plate. After 24 h of incubation, the catheter pieces from each tube were removed, non-adherent bacteria were washed from the catheter pieces, and the number of CFU embedded in biofilm per catheter was determined as described earlier ([Kumar et al., 2016], [2019]). The experiment was performed in triplicate, and the mean log10 killing of planktonic cells and biofilm inhibition were calculated for each concentration. To further assess biofilm formation in the absence (drug-free control) or presence of azithromycin, the catheter pieces were also sectioned and processed for scanning electron microscopy (SEM).

Data set [5] has as its system pre-formed biofilm of P. aeruginosa PAO1. Briefly: Activity on pre-formed biofilm (eradication), crystal violet. The format is cell-based. The settings on record: Pseudomonas aeruginosa; pre-formed 24 h biofilm of P. aeruginosa PAO1, 24 h exposure; read-out: minimum biofilm eradication concentration (MBEC50). The protocol: The efficacy of azithromycin was also evaluated on a pre-formed biofilm of P. aeruginosa PAO1 to assess the therapeutic or eradicative effect of azithromycin as described earlier ([Macia et al., 2014]). The bacterial suspension was prepared as described above and inoculated at 200 μl/well in a 96-well plate. After 24 h of incubation, the wells were emptied and washed with PBS and then spiked with different concentrations (16–0.015 μg/ml) of azithromycin prepared in LB broth containing 0.2% glucose. The plate was further incubated for 24 h, and the effect of azithromycin was assessed as described above.

The subject of data set [6] is P. aeruginosa PA-14 biofilm. Briefly: Solid-surface biofilm formation on catheter piece (CFU, SEM). The format is cell-based, Pseudomonas aeruginosa. The note with it: P. aeruginosa PA-14, 24 h, azithromycin 2 or 16 μg/ml. The protocol: as §1
Data set [7] can be described thus: Pharmacokinetics in plasma and lung ELF of P. aeruginosa-infected rats. The note with it: rat, in vivo, po, 75 mg/kg; for Kp: Sprague-Dawley, 75 mg/kg PO, infected rats. The procedure: The concentrations of azithromycin were assessed in the plasma and lung epithelial lining fluid (ELF) of the rats infected with P. aeruginosa PA-14. Intratracheal infection in rats was performed as described above. A single dose of 75 mg/kg of azithromycin was administered orally through gavage. Blood and broncho-alveolar lavage (BAL) fluid (with 2 ml of normal saline wash) were collected at different time-points up to 24 h post-dose from each animal by gross dissection. For the collection of BAL, 2 ml of sterile cold PBS was infused into the animal through the trachea and into the bronchial cavity and aspirated out. Plasma was harvested from blood samples by centrifugation. The azithromycin concentrations in plasma and BAL samples were determined using liquid chromatography with tandem mass spectrometry. The apparent volume of ELF (VELF) in BAL fluid was determined by the urea dilution method using the urea assay kit from BioChain (Hayward, CA). The concentration of azithromycin in ELF (CELF) was determined as
where CBAL is the measured concentration of azithromycin in BAL fluid.

As for `C[C@H]1COc2c(N3CCN(C)CC3)c(F)cc3c(=O)c(C(=O)O)cn1c23` [levofloxacin], in data set [1] (P. aeruginosa G2, sub-MIC concentrations), the “effect on β-galactosidase activity” value was “did not influence”. This compound had an MIC against P. aeruginosa G2 of 0.001 µg/mL (≈ 0.00277 µM).
As for `CC[C@H]1OC(=O)[C@H](C)[C@@H](O[C@H]2C[C@@](C)(OC)[C@@H](O)[C@H](C)O2)[C@H](C)[C@@H](O[C@@H]2O[C@H](C)C[C@H](N(C)C)[C@H]2O)[C@](C)(O)C[C@@H](C)CN(C)[C@H](C)[C@@H](O)[C@]1(C)O` [azithromycin], the “reduction in bacterial counts as compared to the placebo control” value with P. aeruginosa PA-14 worked out at 1.67 log10. In addition, the “level of QS molecules in the ELF” value in data set [2] is “comparatively reduced level”. For the same compound, the IC50 in [3] worked out at 0.122 µg/mL (≈ 0.163 µM); in data set [1] (Pseudomonas aeruginosa, read-out: inhibition of β-galactosidase activity, IC50), 0.17 µg/mL (≈ 0.227 µM); in data set [5] it was 7.49 µg/mL (≈ 10 µM). Moreover, in data set [4] (6 h), the “reduction in planktonic cell counts as compared to the drug-free control” value amounted to 1.86 log10. For the same compound, the “effect on planktonic cell counts” value in data set [4] (24 h post-incubation) is listed as “no effect”. Also, the MIC with P. aeruginosa G2 was over 0.032 µg/mL. Moreover, the “solid-surface biofilm formation on catheter pieces” value in data set [6] is “no solid-surface biofilm formed”. Further, the Kp in data set [7] (read-out: lung ELF/plasma ratio of AUCinf) came out at 86; in [7] (read-out: lung ELF/plasma ratio of Cmax) it was 81. This compound showed a maximum concentration (Cmax) in data set [7] of 950 ± 300 ng/mL. In addition, the Tmax in [7] was 2 h.
